The values that follow come from patent US8058475B2, “Substituted cyclohexylmethyl compounds” (Gruenenthal GmbH, priority 2005, dated 2011).

Where two headings read alike, the source gives them in different places.

For orientation: inhibition means the drop in the measured response relative to a control, in per cent. As a reminder, the Ki is a measure of affinity in units of concentration, obtained from inhibition or displacement.

In this test the target is human μ-opiate receptor (Homo sapiens, UniProt P35372). Kind of test: Affinity for the human μ-opiate receptor ([3H]-naloxone displacement, SPA, CHO-K1 membrane preparation). It is filed as binding. The note with it: for inhibition at 1 µM: read-out: μ-Opioid receptor, % inhibition [1 μM]; for Ki: read-out: μ-Opioid receptor, Ki.
Setting [1] is: 1 μM test substance, inhibition of specific [3H]-naloxone binding.

Chain of human μ-opiate receptor (P35372 whole entry): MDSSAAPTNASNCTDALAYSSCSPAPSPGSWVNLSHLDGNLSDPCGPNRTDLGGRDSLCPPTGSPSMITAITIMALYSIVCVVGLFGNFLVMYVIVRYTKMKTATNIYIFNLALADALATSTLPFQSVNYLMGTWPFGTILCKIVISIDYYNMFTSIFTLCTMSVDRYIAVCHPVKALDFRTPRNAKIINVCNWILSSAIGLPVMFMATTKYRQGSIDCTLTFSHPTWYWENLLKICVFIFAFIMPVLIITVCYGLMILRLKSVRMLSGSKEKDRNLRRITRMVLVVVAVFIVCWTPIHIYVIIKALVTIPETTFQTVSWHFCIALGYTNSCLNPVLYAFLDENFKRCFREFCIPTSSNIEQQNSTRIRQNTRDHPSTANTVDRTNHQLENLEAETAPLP

As to “4-((dimethylamino)(phenyl)methyl)-1-(4-fluoro-3-methylphenyl)cyclohexanol [compound 150]”, the “μ-Opioid receptor, % inhibition [1 μM]” value under setting [1] stood at 74%.

As to `COC(=O)C(Cc1c[nH]c2ccccc12)NC1CCC(C(c2ccccc2)N(C)C)CC1` (single isomer, unassigned) [compound 174, methyl 2-(4-((dimethylamino)(phenyl)methyl)cyclohexylamino)-3-(1H-indol-3-yl)propanoate], the Ki came to 4.9 nM. For the same molecule, the inhibition at 1 µM under setting [1] was found to be 95%.

For the molecule `COC(=O)C(Cc1c[nH]c2ccccc12)NC1CCC(C(c2ccccc2)N(C)C)CC1` (single isomer, unassigned) [compound 175, methyl 2-(4-((dimethylamino)(phenyl)methyl)cyclohexylamino)-3-(1H-indol-3-yl)propanoate], the inhibition constant (Ki) is 11 nM. The “μ-Opioid receptor, % inhibition [1 μM]” value (1 μM test substance, inhibition of specific [3H]-naloxone binding, 1 µM) is listed as 86%.

On to `CN(C)C(CCc1ccccc1)C1CCC(NC(=O)c2ccc(F)c(C(F)(F)F)c2)CC1` (single isomer, unassigned) [compound 210, N-[4-(1-dimethylamino-3-phenyl-propyl)-cyclohexyl]-4-fluoro-3-trifluoromethyl-benzamide], for which the inhibition at 1 µM came to 92% and the inhibitory constant (Ki) came out at 24 nM.

As for `CC(Oc1ccccc1)C(=O)NC1CCC(C(c2cccc(F)c2)N(C)C)CC1` (single isomer, unassigned) [compound 215, N-{4-[dimethylamino-(3-fluoro-phenyl)-methyl]-cyclohexyl}-2-phenoxy-propionamide], the inhibition at 1 µM was found to be 90% and the Ki was found to be 34 nM.

As for `CC(Oc1ccccc1)C(=O)NC1CCC(C(c2cccc(F)c2)N(C)C)CC1` (single isomer, unassigned) [compound 222, N-{4-[dimethylamino-(3-fluoro-phenyl)-methyl]-cyclohexyl}-2-phenoxy-propionamide], the Ki is 20 nM. Also, the “μ-Opioid receptor, % inhibition [1 μM]” value (1 µM) was determined as 88%.

In the case of `CN(C)C(CCc1ccccc1)C1CCC(NC(=O)c2ccc(F)c(C(F)(F)F)c2)CC1` (single isomer, unassigned) [compound 227, N-[4-(1-dimethylamino-3-phenyl-propyl)-cyclohexyl]-4-fluoro-3-trifluoromethyl-benzamide], the Ki turned out to be 58 nM. Also, the “μ-Opioid receptor, % inhibition [1 μM]” value (1 µM) was found to be 87%.

In the case of `CN(C)C(c1ccccc1)C1CCC(NC(=O)CC(C)(C)C)CC1` (single isomer, unassigned) [compound 228, N-[4-(dimethylamino-phenyl-methyl)-cyclohexyl]-3,3-dimethyl-butyramide], the inhibition at 1 µM is 87% and the Ki is 19 nM.

As to `CCC(C(=O)NC1CCC(C(c2ccccc2)N(C)C)CC1)c1ccccc1` (single isomer, unassigned) [compound 234, N-[4-(dimethylamino-phenyl-methyl)-cyclohexyl]-2-phenyl-butyramide], the inhibition at 1 µM was 84% and the Ki was 46 nM.

For the molecule `CN(C)C(c1ccccc1)C1CCC(NC(=O)c2cccs2)CC1` (single isomer, unassigned) [compound 245, thiophene-2-carboxylic acid [4-(dimethylamino-phenyl-methyl)-cyclohexyl]-amide], the inhibition at 1 µM came to 82% and the inhibitory constant (Ki) was 66 nM.

In the case of `CN(C)C(c1ccccc1)C1CCC(NC(=O)CC(C)(C)C)CC1` (single isomer, unassigned) [compound 246, N-[4-(dimethylamino-phenyl-methyl)-cyclohexyl]-3,3-dimethyl-butyramide], the Ki came to 39 nM. Besides, the “μ-Opioid receptor, % inhibition [1 μM]” value (1 µM) came to 82%.

In the case of `CN(C)C(c1ccccc1)C1CCC(NC(=O)c2cccs2)CC1` (single isomer, unassigned) [compound 249, thiophene-2-carboxylic acid [4-(dimethylamino-phenyl-methyl)-cyclohexyl]-amide], the Ki was found to be 64 nM. Moreover, the “μ-Opioid receptor, % inhibition [1 μM]” value (1 µM) is listed as 81%.

Take `CCC(C(=O)NC1CCC(C(c2ccccc2)N(C)C)CC1)c1ccccc1` (single isomer, unassigned) [compound 250, N-[4-(dimethylamino-phenyl-methyl)-cyclohexyl]-2-phenyl-butyramide]: the Ki amounted to 36 nM. The “μ-Opioid receptor, % inhibition [1 μM]” value (1 µM) is 81%.

As for `CN(C)C(c1ccccc1)C1CCC(CNC(=O)c2ccc(F)c(F)c2)CC1` (single isomer, unassigned) [compound 294, N-[4-(dimethylamino-phenyl-methyl)-cyclohexylmethyl]-3,4-difluoro-benzamide], the inhibition at 1 µM was 101% and the Ki is 8.3 nM.

Take `Cc1ccccc1C(=O)NCC1CCC(C(c2ccccc2)N(C)C)CC1` (single isomer, unassigned) [compound 317, N-[4-(dimethylamino-phenyl-methyl)-cyclohexylmethyl]-2-methyl-benzamide]: the inhibition at 1 µM amounted to 95% and the inhibitory constant (Ki) came to 29 nM.

As to `CN(C)C(c1cccc(F)c1)C1CCC(CNC(=O)Cc2ccccc2)CC1` (single isomer, unassigned) [compound 319, N-{4-[dimethylamino-(3-fluoro-phenyl)-methyl]-cyclohexylmethyl}-2-phenyl-acetamide], the inhibition at 1 µM was 95% and the Ki was 15 nM.

`Cc1ccccc1C(=O)NCC1CCC(C(c2ccccc2)N(C)C)CC1` (single isomer, unassigned) [compound 325, N-[4-(dimethylamino-phenyl-methyl)-cyclohexylmethyl]-2-methyl-benzamide]: the Ki stood at 34 nM. The “μ-Opioid receptor, % inhibition [1 μM]” value (1 µM) amounted to 94%.

Consider `CN(C)C(c1ccccc1)C1CCC(CNC(=O)c2cccc(C(F)(F)F)c2)CC1` (single isomer, unassigned) [compound 326, N-[4-(dimethylamino-phenyl-methyl)-cyclohexylmethyl]-3-trifluoromethyl-benzamide], for which the inhibition at 1 µM amounted to 94% and the Ki was found to be 11 nM.

Turning to `CC(Oc1ccccc1)C(=O)NCC1CCC(C(c2cccc(F)c2)N(C)C)CC1` (single isomer, unassigned) [compound 332, N-{4-[dimethylamino-(3-fluoro-phenyl)-methyl]-cyclohexylmethyl}-2-phenoxy-propionamide], the inhibition at 1 µM was 93% and the Ki came to 20 nM.

With `CN(C)C(c1ccccc1)C1CCC(CNC(=O)c2cccc(C(F)(F)F)c2)CC1` (single isomer, unassigned) [compound 333, N-[4-(dimethylamino-phenyl-methyl)-cyclohexylmethyl]-3-trifluoromethyl-benzamide], the Ki is 17 nM. The “μ-Opioid receptor, % inhibition [1 μM]” value (1 µM) came out at 92%.

With `CN(C)C(c1cccc(F)c1)C1CCC(CNC(=O)c2cccs2)CC1` (single isomer, unassigned) [compound 334, thiophene-2-carboxylic acid {4-[dimethylamino-(3-fluoro-phenyl)-methyl]-cyclohexylmethyl}-amide], the inhibition at 1 µM stood at 92% and the Ki stood at 62 nM.

Turning to `CN(C)C(c1ccc(Cl)cc1)C1CCC(CNC(=O)c2csc3ccccc23)CC1` (single isomer, unassigned) [compound 336, benzo[b]thiophene-3-carboxylic acid {4-[(4-chloro-phenyl)-dimethylamino-methyl]-cyclohexylmethyl}-amide], the inhibition at 1 µM stood at 92% and the Ki was 39 nM.
